Reference: PubChem BioAssay (NCI)
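All cell lines were grown in 96-well plates and treated with compound for 48 hours. The concentration for 50% growth inhibition is given as GI50. At the TGI there is no net growth.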

Key:
Experiment in all cases: growth of human tumour cells (NCI), 48 h
A498 renal = tested on: A498 renal
UACC-62 melanoma = tested on: UACC-62 melanoma
SNB-19 CNS = tested on: SNB-19 CNS
OVCAR-5 ovarian = tested on: OVCAR-5 ovarian
HL-60(TB) leukemia = tested on: HL-60(TB) leukemia
CCRF-CEM leukemia = tested on: CCRF-CEM leukemia
A549 NSCLC = tested on: A549 NSCLC
NCI/ADR-RES ovarian = tested on: NCI/ADR-RES ovarian
HOP-62 NSCLC = tested on: HOP-62 NSCLC
HS 578T breast = tested on: HS 578T breast
LOX IMVI melanoma = tested on: LOX IMVI melanoma
MCF7 breast = tested on: MCF7 breast
NCI-H522 lung = tested on: NCI-H522 lung
OVCAR-3 ovarian = tested on: OVCAR-3 ovarian
SK-MEL-28 melanoma = tested on: SK-MEL-28 melanoma
HCT-116 colon = tested on: HCT-116 colon
DU-145 prostate = tested on: DU-145 prostate
SF-539 CNS = tested on: SF-539 CNS
M14 melanoma = tested on: M14 melanoma
OVCAR-8 ovarian = tested on: OVCAR-8 ovarian
SK-OV-3 ovarian = tested on: SK-OV-3 ovarian
HOP-92 NSCLC = tested on: HOP-92 NSCLC
U251 CNS = tested on: U251 CNS
SK-MEL-5 melanoma = tested on: SK-MEL-5 melanoma
IGROV1 ovarian = tested on: IGROV1 ovarian
COLO 205 colon = tested on: COLO 205 colon
SF-295 CNS = tested on: SF-295 CNS
KM12 colon = tested on: KM12 colon

Which TGI (A498 renal) does the source give for `Cc1ccc2c(n1)C(=O)C(Cl)=C(Nc1ccccc1C(=O)OC(C)(C)C)C2=O` here?
The TGI was 47.8 µM.

What about the GI50 (UACC-62 melanoma) of the same molecule?
Its GI50 is 1.82 µM.

What about the TGI (UACC-62 melanoma) of the same molecule?
The TGI was 3.98 µM.

What about the GI50 (SNB-19 CNS) of the same molecule?
The GI50 was 3.3 µM.

And the TGI (SNB-19 CNS)?
The TGI was 15.4 µM.

What about the GI50 (OVCAR-5 ovarian) of the same molecule?
The GI50 was 2.05 µM.

And the TGI (OVCAR-5 ovarian)?
The TGI was 4.1 µM.

What about the GI50 (HL-60(TB) leukemia) of the same molecule?
Its GI50 is 0.394 µM.

And the TGI (HL-60(TB) leukemia)?
Its TGI is 1.9 µM.

And the GI50 (CCRF-CEM leukemia)?
Its GI50 is 0.425 µM.

And the TGI (CCRF-CEM leukemia)?
Its TGI is over 100 µM.

What about the GI50 (A549 NSCLC) of the same molecule?
The GI50 was 44.5 µM.

And the TGI (A549 NSCLC)?
The TGI was over 100 µM.

And the GI50 (NCI/ADR-RES ovarian)?
Its GI50 is 2.17 µM.

What about the TGI (NCI/ADR-RES ovarian) of the same molecule?
The TGI was 5.35 µM.

And the GI50 (HOP-62 NSCLC)?
Its GI50 is 3.59 µM.

What about the TGI (HOP-62 NSCLC) of the same molecule?
Its TGI is 18.3 µM.

What about the GI50 (HS 578T breast) of the same molecule?
The GI50 was 2.39 µM.

And the TGI (HS 578T breast)?
Its TGI is 7.54 µM.

And the GI50 (LOX IMVI melanoma)?
Its GI50 is 1.02 µM.

What about the TGI (LOX IMVI melanoma) of the same molecule?
The TGI was 2.31 µM.

And the GI50 (MCF7 breast)?
Its GI50 is 0.813 µM.

And the TGI (MCF7 breast)?
Its TGI is 3.58 µM.

And the GI50 (NCI-H522 lung)?
The GI50 was 1.83 µM.

And the TGI (NCI-H522 lung)?
Its TGI is 3.86 µM.

What about the GI50 (OVCAR-3 ovarian) of the same molecule?
The GI50 was 1.31 µM.

And the TGI (OVCAR-3 ovarian)?
Its TGI is 2.96 µM.

And the GI50 (SK-MEL-28 melanoma)?
The GI50 was 1.66 µM.

And the TGI (SK-MEL-28 melanoma)?
Its TGI is 3.12 µM.

And the GI50 (HCT-116 colon)?
The GI50 was 1.61 µM.

What about the TGI (HCT-116 colon) of the same molecule?
The TGI was 3.15 µM.

And the GI50 (DU-145 prostate)?
The GI50 was 1.77 µM.

And the TGI (DU-145 prostate)?
Its TGI is 3.32 µM.

What about the GI50 (SF-539 CNS) of the same molecule?
The GI50 was 1.7 µM.

What about the TGI (SF-539 CNS) of the same molecule?
The TGI was 3.18 µM.

And the GI50 (M14 melanoma)?
Its GI50 is 1.73 µM.

And the TGI (M14 melanoma)?
Its TGI is 3.38 µM.

What about the GI50 (OVCAR-8 ovarian) of the same molecule?
The GI50 was 2.83 µM.

And the TGI (OVCAR-8 ovarian)?
The TGI was 9.32 µM.

And the GI50 (SK-OV-3 ovarian)?
The GI50 was over 100 µM.

What about the TGI (SK-OV-3 ovarian) of the same molecule?
The TGI was over 100 µM.

And the GI50 (HOP-92 NSCLC)?
The GI50 was 1.53 µM.

And the TGI (HOP-92 NSCLC)?
Its TGI is 2.89 µM.

What about the GI50 (U251 CNS) of the same molecule?
The GI50 was 2.42 µM.

And the TGI (U251 CNS)?
Its TGI is 6.81 µM.

And the GI50 (SK-MEL-5 melanoma)?
The GI50 was 1.59 µM.

And the TGI (SK-MEL-5 melanoma)?
Its TGI is 2.98 µM.

And the GI50 (IGROV1 ovarian)?
The GI50 was 1.73 µM.

And the TGI (IGROV1 ovarian)?
Its TGI is 3.43 µM.

What about the GI50 (COLO 205 colon) of the same molecule?
Its GI50 is 1.77 µM.

What about the TGI (COLO 205 colon) of the same molecule?
The TGI was 3.48 µM.

And the GI50 (SF-295 CNS)?
The GI50 was 4.25 µM.

What about the TGI (SF-295 CNS) of the same molecule?
Its TGI is 22.5 µM.

What about the GI50 (KM12 colon) of the same molecule?
Its GI50 is 6.07 µM.

And the TGI (KM12 colon)?
Its TGI is 50.4 µM.
